Experiment: Solubility of sirolimus in solvents and dispersion media
Type: physicochemical
Description: Solution 524 is a homogeneous mixture in which therapeutic substance 112 dissolves within a solvent or a solvent mixture. In one embodiment, solution 524 includes a high-capacity solvent 528 which is an organic solvent that has a high capacity to dissolve therapeutic substance 112. High capacity as utilized herein is defined as an ability to dissolve therapeutic substance 112 at concentrations greater than 500 mg of substance per milliliter of solvent. Examples of high capacity drug dissolving solvents for sirolimus and similar substances include but are not limited to tetrahydrofuran (THF), di-chloromethane (DCM), chloroform, and di-methyl-sulfoxide (DMSO). In addition to the high-capacity solvent, solution 524 may include an excipient 526 in order to assist in drug elution. In one embodiment, excipient 526 may be a surfactant such as but not limited to sorbitan fatty acid esters such as sorbitan monooleate and sorbitan monolaurate, polysorbates such as polysorbate 20, polysorbate 60, and polysorbate 80, cyclodextrins such as 2-hydroxypropyl-beta-cyclodextrin and 2,6-di-O-methyl-beta-cyclodextrin, sodium dodecyl sulfate, octyl glucoside, and low molecular weight poly(ethylene glycol)s. In another embodiment, excipient 526 may be a hydrophilic agent such as but not limited to salts such as sodium chloride and other materials such as urea, citric acid, and ascorbic acid. In yet another embodiment, excipient 526 may be a stabilizer such as but not limited to butylated hydroxytoluene (BHT). Depending on the desired drug load, a low capacity solvent can also be chosen for its reduced solubility of therapeutic substance 112. Low capacity is defined as an ability to dissolve therapeutic substance 112 at concentrations typically below 500 mg of drug per milliliter solvent. Examples of low capacity drug dissolving solvents for sirolimus and similar substances include but are not limited to methanol, ethanol, propanol, acetonitrile, ethyl lactate, acetone, and solvent mixtures like tetrahydrafuran/water (9:1 weight ratio). […]

Q: Which “solubility in supercritical carbon dioxide” value (SCCO2) does the source give for `CO[C@H]1C[C@@H]2CC[C@@H](C)[C@@](O)(O2)C(=O)C(=O)N2CCCC[C@H]2C(=O)O[C@H]([C@H](C)C[C@@H]2CC[C@@H](O)[C@H](OC)C2)CC(=O)[C@H](C)/C=C(\C)[C@@H](O)[C@@H](OC)C(=O)[C@H](C)C[C@H](C)/C=C/C=C/C=C/1C` [sirolimus] here?
A: low capacity

Q: What about the solubility in hexane (hexane) of the same compound?
A: insoluble

Q: And the solubility in water (water)?
A: insoluble
